Measurements from US12435044B2, “Pyridazinone herbicides and pyridazinone intermediates used to prepare a herbicide” (FMC Corporation, priority 2018, dated 2025).

Columns and labels:
Assay type in all cases: in vivo
[1] = tested on: Canada thistle (Cirsium arvense); assay: Test D postemergence controlled growth environment test
From the text: (§1) Seeds of plant species selected from blackgrass (Alopecurus myosuroides), galium (catchweed bedstraw, Galium aparine), kochia (Kochia scoparia), oilseed rape (Brassica napus), barley, spring (Hordeum vulgare), wheat, spring (Triticum aestivum), oat, wild (Avena fatua), barley, winter (Hordeum vulgare) and wheat, winter (Triticum aestivum) were planted into a silt loam soil and treated preemergence with test chemicals formulated in a non-phytotoxic solvent mixture which included a surfactant.
(§2) At the same time, plants selected from these crop and weed species and also bluegrass (annual bluegrass, Poa annua), canarygrass (littleseed canarygrass, Phalaris minor), chickweed (common chickweed, Stellaria media), bromegrass, downy (downy bromegrass, Bromus tectorum), field poppy (Papaver rhoeas), field violet (Viola arvensis), foxtail, green (Setaria viridis), deadnettle (henbit deadnettle, Lamium amplexicaule), ryegrass, Italian (Lolium multiflorum), lambsquarters (Chenopodium album), pigweed (Amaranthus retroflexus), chamomile (scentless chamomile, Matricaria inodora), Russian thistle (Salsola kali), speedwell (bird's-eye speedwell, Veronica persica), buckwheat, wild (Polygonum convolvulus), mustard, wild (Sinapis arvensis), radish, wild (Raphanus raphanistrum), windgrass (Apera spica-venti), geranium, cutleaf (Geranium dissectum) and Canada thistle (Cirsium arvense) were planted in pots containing Redi-Earth® planting medium (Scotts Company, 14111 Scottslawn Road, Marysville, Ohio 43041) comprising spaghnum peat moss, vermiculite, wetting agent and starter nutrients and treated with postemergence applications of the test chemicals formulated in the same manner. Plants ranged in height from 2 to 18 cm (1- to 4-leaf stage). Treated plants and controls were maintained in a controlled growth environment for 14 to 21 d after which time all species were compared to controls and visually evaluated. Plant response ratings, summarized in Table D, are based on a scale of 0 to 100 where 0 is no effect and 100 is complete control. A dash (-) response means no test result.

[2] = tested on: bromegrass, downy (downy bromegrass, Bromus tectorum); assay: as above
From the text: as §1, §2

[3] = tested on: buckwheat, wild (Polygonum convolvulus); assay: as above
From the text: as §1, §2

[4] = tested on: field violet (Viola arvensis); assay: as above
From the text: as §1, §2

[5] = tested on: lambsquarters (Chenopodium album); assay: as above
From the text: as §1, §2

[6] = tested on: mustard, wild (Sinapis arvensis); assay: as above
From the text: as §1, §2

[7] = tested on: pigweed (Amaranthus retroflexus); assay: as above
From the text: as §1, §2

[8] = tested on: waterhemp_RES1, (ALS & Triazine resistant common waterhemp, Amaranthus rudis); assay: Test E postemergence greenhouse test
From the text: (§3) Seeds of plant species selected from corn (Zea mays), soybean (Glycine max), velvetleaf (Abutilon theophrasti), lambsquarters (Chenopodium album), poinsettia, wild (Euphorbia heterophylla), pigweed, palmer (Amaranthus palmeri), waterhemp (common waterhemp, Amaranthus rudis), surinam grass (Brachiaria decumbens), crabgrass, large (Digitaria sanguinalis), crabgrass, Brazil (Digitaria horizontalis), panicum, fall (Panicum dichotomiflorum), foxtail, giant (Setaria faberii), foxtail, green (Setaria viridis), goosegrass (Eleusine indica), johnsongrass (Sorghum halepense), ragweed (common ragweed, Ambrosia elatior), barnyardgrass (Echinochloa crus-galli), sandbur (southern sandbur, Cenchrus echinatus), arrowleaf sida (Sida rhombifolia), ryegrass, Italian (Lolium multiflorum), dayflower, VA (Virginia (VA) dayflower, Commelina virginica), field bindweed (Convolvulus arvensis), morningglory (Ipomoea coccinea), horseweed (Conyza canadensis), kochia (Kochia scoparia), nutsedge, yellow (Cyperus esculentus) and hairy beggarticks (Bidenspilosa), were planted into a silt loam soil and treated preemergence with test chemicals formulated in a non-phytotoxic solvent mixture which included a surfactant.
(§4) At the same time, plants selected from these crop and weed species and also waterhemp_RES1, (ALS & Triazine resistant common waterhemp, Amaranthus rudis), and waterhemp_RES2, (ALS & HPPD resistant common waterhemp, Amaranthus rudis) were planted in pots containing Redi-Earth® planting medium (Scotts Company, 14111 Scottslawn Road, Marysville, Ohio 43041) comprising spaghnum peat moss, vermiculite, wetting agent and starter nutrients were treated with postemergence applications of test chemicals formulated in the same manner. Plants ranged in height from 2 to 18 cm for postemergence treatments (1- to 4-leaf stage). Treated plants and controls were maintained in a greenhouse for 14 to 21 d, after which time all species were compared to controls and visually evaluated. Plant response ratings, summarized in Table E, are based on a scale of 0 to 100 where 0 is no effect and 100 is complete control. A dash (-) response means no test result.

[9] = tested on: waterhemp_RES2, (ALS & HPPD resistant common waterhemp, Amaranthus rudis); assay: Test E postemergence greenhouse test
From the text: as §3, §4

With `Cc1ccc2ccc(C)c(-c3c(O)c(Cl)nn(C)c3=O)c2c1` [Cpd. No. 20, 6-chloro-4-(2,7-dimethyl-1-naphthalenyl)-5-hydroxy-2-methyl-3(2H)-pyridazinone] the “Plant response rating, Canada Thistle” value ([1]; 16 g ai/ha) was 75, the “Plant response rating, Canada Thistle” value ([1]; 31 g ai/ha) was 85 and the “Plant response rating, Canada Thistle” value ([1]; 62 g ai/ha) was 95. The “Plant response rating, Canada Thistle” value ([1]; 125 g ai/ha) was 95, the “Plant response rating, Bromegrass, Downy” value ([2]; 16 g ai/ha) was 0 and the “Plant response rating, Bromegrass, Downy” value ([2]; 31 g ai/ha) was 5. For the same compound, the “Plant response rating, Bromegrass, Downy” value ([2]; 62 g ai/ha) was 10, the “Plant response rating, Bromegrass, Downy” value ([2]; 125 g ai/ha) was 25 and the “Plant response rating, Buckwheat, Wild” value ([3]; 16 g ai/ha) was 100. For the same compound, the “Plant response rating, Buckwheat, Wild” value ([3]; 31 g ai/ha) was 98, the “Plant response rating, Buckwheat, Wild” value ([3]; 62 g ai/ha) was 99 and the “Plant response rating, Buckwheat, Wild” value ([3]; 125 g ai/ha) was 100. For the same compound, the “Plant response rating, Field Violet” value ([4]; 16 g ai/ha) was 80, the “Plant response rating, Field Violet” value ([4]; 31 g ai/ha) was 80 and the “Plant response rating, Field Violet” value ([4]; 62 g ai/ha) was 95. For the same compound, the “Plant response rating, Field Violet” value ([4]; 125 g ai/ha) was 95, the “Plant response rating, Lambsquarters” value ([5]; 16 g ai/ha) was 90 and the “Plant response rating, Lambsquarters” value ([5]; 31 g ai/ha) was 95. For the same compound, the “Plant response rating, Lambsquarters” value ([5]; 62 g ai/ha) was 90, the “Plant response rating, Lambsquarters” value ([5]; 125 g ai/ha) was 98 and the “Plant response rating, Mustard, Wild” value ([6]; 16 g ai/ha) was 20. For the same compound, the “Plant response rating, Mustard, Wild” value ([6]; 31 g ai/ha) was 25, the “Plant response rating, Mustard, Wild” value ([6]; 62 g ai/ha) was 30 and the “Plant response rating, Mustard, Wild” value ([6]; 125 g ai/ha) was 60. The “Plant response rating, Pigweed” value ([7]; 16 g ai/ha) was 98, the “Plant response rating, Pigweed” value ([7]; 31 g ai/ha) was 98 and the “Plant response rating, Pigweed” value ([7]; 62 g ai/ha) was 100. The “Plant response rating, Pigweed” value ([7]; 125 g ai/ha) was 100, the “Plant response rating, Waterhemp_RES1” value ([8]; 16 g ai/ha) was 75 and the “Plant response rating, Waterhemp_RES1” value ([8]; 31 g ai/ha) was 90. The “Plant response rating, Waterhemp_RES1” value ([8]; 62 g ai/ha) was 80, the “Plant response rating, Waterhemp_RES1” value ([8]; 125 g ai/ha) was 95 and the “Plant response rating, Waterhemp_RES2” value ([9]; 16 g ai/ha) was 15. The “Plant response rating, Waterhemp_RES2” value ([9]; 31 g ai/ha) was 40, the “Plant response rating, Waterhemp_RES2” value ([9]; 62 g ai/ha) was 60 and the “Plant response rating, Waterhemp_RES2” value ([9]; 125 g ai/ha) was 70.
